In this assay the target is T1, human 5-HT3A receptor W63A mutant (Homo sapiens, UniProt P46098, W85A).
T1 sequence (P46098 24-478 W85A): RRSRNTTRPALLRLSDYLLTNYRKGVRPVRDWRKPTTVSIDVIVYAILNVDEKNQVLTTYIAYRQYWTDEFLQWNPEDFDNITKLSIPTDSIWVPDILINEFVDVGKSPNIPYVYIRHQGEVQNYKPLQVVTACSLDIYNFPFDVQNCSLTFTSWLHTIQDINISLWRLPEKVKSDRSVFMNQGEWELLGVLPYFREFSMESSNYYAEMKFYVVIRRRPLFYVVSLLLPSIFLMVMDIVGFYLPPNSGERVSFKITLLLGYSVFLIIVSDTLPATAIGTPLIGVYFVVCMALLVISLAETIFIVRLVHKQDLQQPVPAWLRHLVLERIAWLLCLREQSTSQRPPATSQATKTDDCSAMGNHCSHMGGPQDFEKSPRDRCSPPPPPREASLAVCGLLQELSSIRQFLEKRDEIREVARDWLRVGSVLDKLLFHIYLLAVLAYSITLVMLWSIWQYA
The assay can be described thus: Two-electrode voltage clamp, I5-HT inhibition, W63A mutant. The format is cell-based. The conditions noted are these: −80 mV.

Procedure: Human 5-HT3A receptor cDNA was linearized using restriction enzyme XhoI. In vitro transcription was performed using an mMESSAGE mMACHINE T7 Transcription Kit (Thermo Fisher Scientific, Waltham, MA, USA). The final mRNA product was dissolved in 1X Diethyl Pyrocarbonate (RNase-free water) at a final concentration of 1 μg/μL and kept in a deep-freezer at −80 °C until used.
Xenopus oocytes were used in this study as cells for expression of human 5-HT3A receptor. All female frogs used in this experiment were obtained from the Korean Xenopus Resource Center for Research (KXRCR000001). […] Xenopus oocytes were extracted during ice incubation state and isolated as single oocytes using collagenase II (2 mg/mL) in OR2 buffer (82.5 mM NaCl, 2 mM KCl, 1 mM MgCl2, 5 mM HEPES, pH 7.4). Isolated oocytes were incubated with ND96 incubation buffer (96 mM NaCl, 2 mM KCl, 1 mM MgCl2, 1.8 mM CaCl2, 5 mM HEPES, 2.5 mM sodium pyruvate, and 50 mg/mL gentamycin, pH 7.4) at 18 °C until the experiment was performed. Human 5-HT3A receptor mRNA was injected into oocytes using a nanoinjector (Drummond Scientific, Broomall, PA, USA) with a mineral-filled 10 μL microdispenser (VWR, Piscataway, NJ, USA).
To confirm the KAE activity on the human 5-HT3A receptor, a two-electrode voltage clamp (OC-725C; Warner Instruments, Hamden, CT, USA) with a Digitata 1550A was used. For the experiment, induced-inward current was converted to digital data with pClamp 10 software (Axon Instruments, Union City, CA, USA). All experiments were performed at room temperature using an oocyte clamp equipped with Digidata. The membrane holding potential was −80 mV.
The voltage relationship experiment for confirming the relationship between induce-inward current and voltage, the voltage was varied from −80 mV to +60 mV using a ramp protocol. […] All recording data were analyzed using Clampfit 9.0 (Molecular Devices, San Jose, CA, USA). […]
All presented experiments were performed at least three times for scientific verification. […] Induced-inward current data were analyzed with SigmaPlot 10.0 software (Systat Software, Inc., San Jose, CA, USA). […]

The term IC50 denotes the concentration needed to halve the response being measured. A higher IC50 goes with weaker potency in that assay. On to `O=c1c(O)c(-c2ccc(O)cc2)oc2cc(O)cc(O)c12` [KAE, kaempferol], for which the half-maximal inhibitory concentration (IC50) was 33.7 ± 5.7 µM, the Vmax worked out at 76.3 ± 10.7% and the “n (Hill coefficient)” value was 1.3 ± 0.5.

Values taken from article PMC8745345, “Hydroxy Pentacyclic Triterpene Acid, Kaempferol, Inhibits the Human 5-Hydroxytryptamine Type 3A Receptor Activity” (International Journal of Molecular Sciences, 2022).
